Target: CD137 (Homo sapiens, UniProt Q07011)
Assay: CD137 reporter assay, co-culture with Nectin-4 tumour cells;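 also: jurkat reporter cells co-cultured with tumour cells and test article for 6 h, luminescence signal relative to Jurkat plus tumour cells lacking test article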
Assay type: cell-based
Set-up: host or cells: Jurkat reporter cells
Conditions: for fold induction / Fold Induction over Background: tumour target Nectin4, co-culture with H1376, 6 h; for fold induction: read-out: Fold Induction over Background

CD137, sequence (Q07011 24-255): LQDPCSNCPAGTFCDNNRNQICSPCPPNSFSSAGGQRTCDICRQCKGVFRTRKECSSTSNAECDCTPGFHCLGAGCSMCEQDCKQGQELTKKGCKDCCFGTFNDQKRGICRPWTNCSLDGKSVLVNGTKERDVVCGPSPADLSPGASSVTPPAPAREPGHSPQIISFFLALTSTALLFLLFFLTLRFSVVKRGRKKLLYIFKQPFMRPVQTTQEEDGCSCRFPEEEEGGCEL

CCCC[C@@H]1NC(=O)[C@H](Cc2ccc(O)cc2)NC(=O)[C@@H]2CCCN2C(=O)[C@H](CC(=O)O)NC(=O)[C@H](C)NC(=O)[C@H](Cc2ccccc2)NC(=O)[C@@H]2CSCCC(=O)N3CN(CN(C3)C(=O)CCSC[C@@H](C(=O)N[C@@H](CNC(=O)CCc3cn(CCOCCOCCOCCOCCOCCOCCOCCOCCOCCOCCNC(=O)N[C@H]4CSCCC(=O)N5CN6CN(C5)C(=O)CCSC[C@H](NC(=O)[C@@H](CC(=O)O)NC(=O)[C@H](Cc5cccc7ccccc57)NC(=O)[C@@H]5CCCN5C4=O)C(=O)N[C@@H](CCSC)C(=O)N[C@@H](CCCCNC(=N)N)C(=O)N[C@@H](CC(=O)O)C(=O)N[C@@H](Cc4c[nH]c5ccccc45)C(=O)N[C@@H](CO)C(=O)N[C@@H]([C@@H](C)O)C(=O)N4CCC[C@H]4C(=O)N4C[C@H](O)C[C@H]4C(=O)N[C@@H](Cc4c[nH]c5ccccc45)C(=O)N[C@H](C(N)=O)CSCCC6=O)nn3)C(N)=O)NC1=O)C(=O)CCSC[C@H](NC(=O)[C@H](C)NC(C)=O)C(=O)N[C@@H]([C@@H](C)CC)C(=O)N[C@@H](CCC(=O)O)C(=O)N[C@@H](CCC(=O)O)C(=O)NCC(=O)N[C@@H](CCC(N)=O)C(=O)N[C@@H](Cc1ccc(O)cc1)C(=O)N2 [BCY9399]
fold induction: 13

CCCC[C@@H]1NC(=O)[C@H](Cc2ccc(O)cc2)NC(=O)[C@@H]2CCCN2C(=O)[C@H](CC(=O)O)NC(=O)[C@H](C)NC(=O)[C@H](Cc2ccccc2)NC(=O)[C@@H]2CSCCC(=O)N3CN(CN(C3)C(=O)CCSC[C@@H](C(=O)N[C@@H](CNC(=O)CCc3cn(CCOCCOCCOCCOCCOCCOCCOCCOCCOCCOCCOCCOCCOCCOCCOCCOCCOCCOCCOCCOCCOCCOCCOCCNC(=O)N[C@H]4CSCCC(=O)N5CN6CN(C5)C(=O)CCSC[C@H](NC(=O)[C@@H](CC(=O)O)NC(=O)[C@H](Cc5cccc7ccccc57)NC(=O)[C@@H]5CCCN5C4=O)C(=O)N[C@@H](CCSC)C(=O)N[C@@H](CCCCNC(=N)N)C(=O)N[C@@H](CC(=O)O)C(=O)N[C@@H](Cc4c[nH]c5ccccc45)C(=O)N[C@@H](CO)C(=O)N[C@@H]([C@@H](C)O)C(=O)N4CCC[C@H]4C(=O)N4C[C@H](O)C[C@H]4C(=O)N[C@@H](Cc4c[nH]c5ccccc45)C(=O)N[C@H](C(N)=O)CSCCC6=O)nn3)C(N)=O)NC1=O)C(=O)CCSC[C@H](NC(=O)[C@H](C)NC(C)=O)C(=O)N[C@@H]([C@@H](C)CC)C(=O)N[C@@H](CCC(=O)O)C(=O)N[C@@H](CCC(=O)O)C(=O)NCC(=O)N[C@@H](CCC(N)=O)C(=O)N[C@@H](Cc1ccc(O)cc1)C(=O)N2 [BCY9400]
fold induction: 13

CCCC[C@@H]1NC(=O)[C@H](Cc2ccc(O)cc2)NC(=O)[C@@H]2CCCN2C(=O)[C@H](CC(=O)O)NC(=O)[C@H](C)NC(=O)[C@H](Cc2ccccc2)NC(=O)[C@@H]2CSCCC(=O)N3CN(CN(C3)C(=O)CCSC[C@@H](C(=O)N[C@@H](CNC(=O)CCc3cn(CCCNC(=O)CN(C)C(=O)CN(C)C(=O)CN(C)C(=O)CN(C)C(=O)CN(C)C(=O)CCOCCOCCOCCOCCOCCOCCOCCOCCOCCOCCOCCOCCOCCOCCOCCNC(=O)N[C@H]4CSCCC(=O)N5CN6CN(C5)C(=O)CCSC[C@H](NC(=O)[C@@H](CC(=O)O)NC(=O)[C@H](Cc5cccc7ccccc57)NC(=O)[C@@H]5CCCN5C4=O)C(=O)N[C@@H](CCSC)C(=O)N[C@@H](CCCCNC(=N)N)C(=O)N[C@@H](CC(=O)O)C(=O)N[C@@H](Cc4c[nH]c5ccccc45)C(=O)N[C@@H](CO)C(=O)N[C@@H]([C@@H](C)O)C(=O)N4CCC[C@H]4C(=O)N4C[C@H](O)C[C@H]4C(=O)N[C@@H](Cc4c[nH]c5ccccc45)C(=O)N[C@H](C(N)=O)CSCCC6=O)nn3)C(N)=O)NC1=O)C(=O)CCSC[C@H](NC(=O)[C@H](C)NC(C)=O)C(=O)N[C@@H]([C@@H](C)CC)C(=O)N[C@@H](CCC(=O)O)C(=O)N[C@@H](CCC(=O)O)C(=O)NCC(=O)N[C@@H](CCC(N)=O)C(=O)N[C@@H](Cc1ccc(O)cc1)C(=O)N2 [BCY9407]
EC50: 3.4 nM | Fold Induction over Background: 29 fold

CCCC[C@@H]1NC(=O)[C@H](Cc2ccc(O)cc2)NC(=O)[C@@H]2CCCN2C(=O)[C@H](CC(=O)O)NC(=O)[C@H](C)NC(=O)[C@H](Cc2ccccc2)NC(=O)[C@@H]2CSCCC(=O)N3CN(CN(C3)C(=O)CCSC[C@@H](C(=O)N[C@@H](CNC(=O)CCOCCOCCOCCOCCOCCOCCOCCOCCOCCOCCOCCOCCOCCOCCOCCOCCOCCOCCOCCOCCOCCOCCOCCOCCOCCC(=O)N[C@H]3CSCCC(=O)N4CN5CN(C4)C(=O)CCSC[C@H](NC(=O)[C@@H](CC(=O)O)NC(=O)[C@H](Cc4cccc6ccccc46)NC(=O)[C@@H]4CCCN4C3=O)C(=O)N[C@@H](CCSC)C(=O)N[C@@H](CCCCNC(=N)N)C(=O)N[C@@H](CC(=O)O)C(=O)N[C@@H](Cc3c[nH]c4ccccc34)C(=O)N[C@@H](CO)C(=O)N[C@@H]([C@@H](C)O)C(=O)N3CCC[C@H]3C(=O)N3C[C@H](O)C[C@H]3C(=O)N[C@@H](Cc3c[nH]c4ccccc34)C(=O)N[C@H](C(N)=O)CSCCC5=O)C(N)=O)NC1=O)C(=O)CCSC[C@H](NC(=O)[C@H](C)NC(C)=O)C(=O)N[C@@H]([C@@H](C)CC)C(=O)N[C@@H](CCC(=O)O)C(=O)N[C@@H](CCC(=O)O)C(=O)NCC(=O)N[C@@H](CCC(N)=O)C(=O)N[C@@H](Cc1ccc(O)cc1)C(=O)N2 [BCY9759]
Fold Induction over Background: 15 fold

CCCC[C@@H]1NC(=O)[C@H](Cc2ccc(O)cc2)NC(=O)[C@@H]2CCCN2C(=O)[C@H](CC(=O)O)NC(=O)[C@H](C)NC(=O)[C@H](Cc2ccccc2)NC(=O)[C@@H]2CSCCC(=O)N3CN(CN(C3)C(=O)CCSC[C@@H](C(=O)N[C@@H](CNC(=O)CCc3cn(CCOCCOCCOCCOCCOCCC(=O)N[C@H]4CSCCC(=O)N5CN6CN(C5)C(=O)CCSC[C@H](NC(=O)[C@@H](CC(=O)O)NC(=O)[C@H](Cc5cccc7ccccc57)NC(=O)[C@@H]5CCCN5C4=O)C(=O)N[C@@H](CCSC)C(=O)N[C@@H](CCCCNC(=N)N)C(=O)N[C@@H](CC(=O)O)C(=O)N[C@@H](Cc4c[nH]c5ccccc45)C(=O)N[C@@H](CO)C(=O)N[C@@H]([C@@H](C)O)C(=O)N4CCC[C@H]4C(=O)N4C[C@H](O)C[C@H]4C(=O)N[C@@H](Cc4c[nH]c5ccccc45)C(=O)N[C@H](C(N)=O)CSCCC6=O)nn3)C(N)=O)NC1=O)C(=O)CCSC[C@H](NC(C)=O)C(=O)N[C@@H](CC(C)(C)C)C(=O)N1CCC[C@H]1C(=O)N[C@@H](CCC(=O)O)C(=O)N[C@H](C)C(=O)N1CCC[C@H]1C(=O)N[C@@H](Cc1ccc(O)cc1)C(=O)N2 [BCY10573]
EC50: 0.9 nM | Fold Induction over Background: 55 fold

CCCC[C@@H]1NC(=O)[C@H](Cc2ccc(O)cc2)NC(=O)[C@@H]2CCCN2C(=O)[C@H](CC(=O)O)NC(=O)[C@H](C)NC(=O)[C@H](Cc2ccccc2)NC(=O)[C@@H]2CSCCC(=O)N3CN(CN(C3)C(=O)CCSC[C@@H](C(=O)N[C@@H](CNC(=O)Cn3cc(CCC(=O)NCCC(=O)N(C)CC(=O)N(C)CC(=O)N(C)CC(=O)N(C)CC(=O)N(C)CC(=O)N(C)CC(=O)N(C)CC(=O)N(C)CC(=O)N(C)CC(=O)N(C)CC(=O)N[C@H]4CSCCC(=O)N5CN6CN(C5)C(=O)CCSC[C@H](NC(=O)[C@@H](CC(=O)O)NC(=O)[C@H](Cc5cccc7ccccc57)NC(=O)[C@@H]5CCCN5C4=O)C(=O)N[C@@H](CCSC)C(=O)N[C@@H](CCCCNC(=N)N)C(=O)N[C@@H](CC(=O)O)C(=O)N[C@@H](Cc4c[nH]c5ccccc45)C(=O)N[C@@H](CO)C(=O)N[C@@H]([C@@H](C)O)C(=O)N4CCC[C@H]4C(=O)N4C[C@H](O)C[C@H]4C(=O)N[C@@H](Cc4c[nH]c5ccccc45)C(=O)N[C@H](C(N)=O)CSCCC6=O)nn3)C(N)=O)NC1=O)C(=O)CCSC[C@H](NC(C)=O)C(=O)N[C@@H](CC(C)(C)C)C(=O)N1CCC[C@H]1C(=O)N[C@@H](CCC(=O)O)C(=O)N[C@H](C)C(=O)N1CCC[C@H]1C(=O)N[C@@H](Cc1ccc(O)cc1)C(=O)N2 [BCY10578]
Fold Induction over Background: 58 fold
